According to US7956074B2, “Aryl-isoxazolo-4-yl-oxadiazole derivatives” (Hoffman-La Roche Inc., priority 2005, dated 2011):

Target: T1, GABA A receptor α5β3γ2 (Homo sapiens, UniProt P18507+P31644)
T1 construct: expressed in transfected cells; host or cells: HEK293 cells, transiently transfected; membranes prepared
Assay: [3H]flumazenil competition binding, human GABA A α5β3γ2
Settings: competition for [3H]flumazenil (0.5 nM) binding, HEK293 cells expressing human (transiently transfected) α5β3γ2; means of two determinations; read-out: Ki[nM] hα5
Experimental: Membrane Preparation and Binding Assay
The affinity of compounds at GABA A receptor subtypes was measured by competition for [3H]flumazenil (85 Ci/mmol; Roche) binding to HEK293 cells expressing rat (stably transfected) or human (transiently transfected) receptors of composition
Cell pellets were suspended in Krebs-tris buffer (4.8 mM KCl, 1.2 mM CaCl2, 1.2 mM MgCl2, 120 mM NaCl, 15 mM Tris; pH 7.5; binding assay buffer), homogenized by polytron for ca. 20 sec on ice and centrifuged for 60 min at 4° C. (50000 g; Sorvall, rotor: SM24=20000 rpm). The cell pellets were resuspended in Krebs-tris buffer and homogenized by polytron for ca. 15 sec on ice. Protein was measured (Bradford method, Bio-Rad) and aliquots of 1 mL were prepared and stored at −80° C.
Assays were incubated to equilibrium for 1 hour at 4° C. and harvested onto GF/C uni-filters (Packard) by filtration using a Packard harvester and washing with ice-cold wash buffer (50 mM Tris; pH 7.5). After drying, filter-retained radioactivity was detected by liquid scintillation counting. Ki values were calculated using Excel-Fit (Microsoft) and are the means of two determinations.

Structure (SMILES) | Ki
COc1cc(F)ccc1-c1nnc(-c2c(-c3ccccc3)noc2C2CC2)o1 [Example 73, 2-(5-Cyclopropyl-3-phenyl-isoxazol-4-yl)-5-(4-fluoro-2-methoxy-phenyl)-[1,3,4]oxadiazole] | 11.9 nM
Cc1onc(-c2ccccc2)c1-c1nnc(-c2ccc3[nH]ccc3c2)o1 [Example 74, 5-[5-(5-Methyl-3-phenyl-isoxazol-4-yl)-[1,3,4]oxadiazol-2-yl]-1H-indole] | 134 nM
Cc1onc(-c2ccccc2)c1-c1nnc(-c2ccc3c(ccn3C)c2)o1 [Example 75, 1-Methyl-5-[5-(5-methyl-3-phenyl-isoxazol-4-yl)-[1,3,4]oxadiazol-2-yl]-1H-indole] | 129 nM
Cc1onc(-c2ccccc2)c1-c1nnc(-c2ccc(F)cc2F)o1 [Example 76, 2-(2,4-Difluoro-phenyl)-5-(5-methyl-3-phenyl-isoxazol-4-yl)-[1,3,4]oxadiazole] | 189 nM
COc1cc(N2CCOCC2)ccc1-c1nnc(-c2c(-c3ccccc3)noc2C2CC2)o1 [Example 77, 4-{4-[5-(5-Cyclopropyl-3-phenyl-isoxazol-4-yl)-[1,3,4]oxadiazol-2-yl]-3-methoxy-phenyl}-morpholine] | 2.1 nM
Cc1onc(-c2ccccc2)c1-c1nnc(-c2ccc(C(=O)NC3CC3)cc2)o1 [Example 78, N-Cyclopropyl-4-[5-(5-methyl-3-phenyl-isoxazol-4-yl)-[1,3,4]oxadiazol-2-yl]-benzamide] | 42.1 nM
Cc1onc(-c2ccccc2)c1-c1nnc(-c2ccc(C(=O)N3CCOCC3)cc2)o1 [Example 80, {4-[5-(5-Methyl-3-phenyl-isoxazol-4-yl)-[1,3,4]oxadiazol-2-yl]-phenyl}-morpholin-4-yl-methanone] | 469 nM
Cc1onc(-c2ccccc2)c1-c1nnc(-c2ccc(C(=O)NC3CCOCC3)cc2)o1 [Example 81, 4-[5-(5-Methyl-3-phenyl-isoxazol-4-yl)-[1,3,4]oxadiazol-2-yl]-N-(tetrahydro-pyran-4-yl)-benzamide] | 86 nM
COc1cc(NC2CCOCC2)ccc1-c1nnc(-c2c(-c3ccccc3)noc2C2CC2)o1 [Example 82, {4-[5-(5-Cyclopropyl-3-phenyl-isoxazol-4-yl)-[1,3,4]oxadiazol-2-yl]-3-methoxy-phenyl}-(tetrahydro-pyran-4-yl)-amine] | 3.7 nM
Cc1onc(-c2ccccc2)c1-c1nnc(-c2cc(F)ccc2F)o1 [Example 83, 2-(2,5-Difluoro-phenyl)-5-(5-methyl-3-phenyl-isoxazol-4-yl)-[1,3,4]oxadiazole] | 163 nM
Cc1onc(-c2ccccc2)c1-c1nnc(-c2cccc(F)c2F)o1 [Example 84, 2-(2,3-Difluoro-phenyl)-5-(5-methyl-3-phenyl-isoxazol-4-yl)-[1,3,4]oxadiazole] | 225 nM
COc1cc(-n2nccn2)ccc1-c1nnc(-c2c(-c3ccccc3)noc2C)o1 [Example 85, 2-(2-Methoxy-4-[1,2,3]triazol-2-yl-phenyl)-5-(5-methyl-3-phenyl-isoxazol-4-yl)-[1,3,4]oxadiazole] | 20.6 nM
COc1cc(-n2ccnn2)ccc1-c1nnc(-c2c(-c3ccccc3)noc2C)o1 [Example 86, 2-(2-Methoxy-4-[1,2,3]triazol-1-yl-phenyl)-5-(5-methyl-3-phenyl-isoxazol-4-yl)-[1,3,4]oxadiazole] | 4.8 nM
CNCc1onc(-c2ccccc2)c1-c1nnc(-c2ccc(F)cc2OC)o1 [Example 88, {4-[5-(4-Fluoro-2-methoxy-phenyl)-[1,3,4]oxadiazol-2-yl]-3-phenyl-isoxazol-5-ylmethyl}-methyl-amine] | 339 nM
COc1cc(NC(C)=O)ccc1-c1nnc(-c2c(-c3ccccc3)noc2C)o1 [Example 89, N-{3-Methoxy-4-[5-(5-methyl-3-phenyl-isoxazol-4-yl)-[1,3,4]oxadiazol-2-yl]-phenyl}-acetamide] | 4.6 nM
CCC(=O)Nc1ccc(-c2nnc(-c3c(-c4ccccc4)noc3C)o2)c(OC)c1 [Example 90, N-{3-Methoxy-4-[5-(5-methyl-3-phenyl-isoxazol-4-yl)-[1,3,4]oxadiazol-2-yl]-phenyl}-propionamide] | 4.8 nM
COCc1onc(-c2ccccc2)c1-c1nnc(-c2ccc(F)cc2OC)o1 [Example 91, 2-(4-Fluoro-2-methoxy-phenyl)-5-(5-methoxymethyl-3-phenyl-isoxazol-4-yl)-[1,3,4]oxadiazole] | 112 nM
COc1cc(F)ccc1-c1nnc(-c2c(-c3ccccc3)noc2CO)o1 [Example 92, {4-[5-(4-Fluoro-2-methoxy-phenyl)-[1,3,4]oxadiazol-2-yl]-3-phenyl-isoxazol-5-yl}-methanol] | 293 nM

Structure (SMILES) | Ki
COc1ncccc1-c1nnc(-c2c(-c3ccccc3)noc2C)o1 [Example 93, 2-Methoxy-3-[5-(5-methyl-3-phenyl-isoxazol-4-yl)-[1,3,4]oxadiazol-2-yl]-pyridine] | 22.8 nM
COc1cc(N2CCOCC2)ccc1-c1nnc(-c2c(-c3cccc(Cl)c3)noc2C)o1 [Example 94, 4-(4-{5-[3-(3-Chloro-phenyl)-5-methyl-isoxazol-4-yl]-[1,3,4]oxadiazol-2-yl}-3-methoxy-phenyl)-morpholine] | 19.3 nM
COc1cc(N2CCOCC2)ccc1-c1nnc(-c2conc2-c2ccccc2)o1 [Example 95, 4-{3-Methoxy-4-[5-(3-phenyl-isoxazol-4-yl)-[1,3,4]oxadiazol-2-yl]-phenyl}-morpholine] | 44.5 nM
COc1cc(N2CCOCC2)ccc1-c1nnc(-c2c(-c3ccccc3)noc2-c2ccccc2)o1 [Example 96, 4-{4-[5-(3,5-Diphenyl-isoxazol-4-yl)-[1,3,4]oxadiazol-2-yl]-3-methoxy-phenyl}-morpholine] | 15.3 nM
COc1cc(N2CCOCC2)ccc1-c1nnc(-c2c(-c3ccccc3Cl)noc2C)o1 [Example 97, 4-(4-{5-[3-(2-Chloro-phenyl)-5-methyl-isoxazol-4-yl]-[1,3,4]oxadiazol-2-yl}-3-methoxy-phenyl)-morpholine] | 105 nM
COc1cc(N2CCOCC2)ccc1-c1nnc(-c2conc2-c2ccc(F)cc2)o1 [Example 98, 4-(4-{5-[3-(4-Fluoro-phenyl)-isoxazol-4-yl]-[1,3,4]oxadiazol-2-yl}-3-methoxy-phenyl)-morpholine] | 49 nM
COc1ccc(-c2nnc(-c3c(-c4ccccc4)noc3C)o2)c(Cl)n1 [Example 99, 2-Chloro-6-methoxy-3-[5-(5-methyl-3-phenyl-isoxazol-4-yl)-[1,3,4]oxadiazol-2-yl]-pyridine] | 95.8 nM
COc1ccc(-c2nnc(-c3c(-c4ccccc4)noc3C)o2)c(OC)n1 [Example 100, 2,6-Dimethoxy-3-[5-(5-methyl-3-phenyl-isoxazol-4-yl)-[1,3,4]oxadiazol-2-yl]-pyridine] | 24 nM
COc1cc(N2CCOCC2)ccc1-c1nnc(-c2c(-c3ccc(F)cc3)noc2C)o1 [Example 101, 4-(4-{5-[3-(4-Fluoro-phenyl)-5-methyl-isoxazol-4-yl]-[1,3,4]oxadiazol-2-yl}-3-methoxy-phenyl)-morpholine] | 14.5 nM
COc1cc(N2CCOCC2)ccc1-c1nnc(-c2c(-c3cccnc3)noc2C)o1 [Example 102, 4-{3-Methoxy-4-[5-(5-methyl-3-pyridin-3-yl-isoxazol-4-yl)-[1,3,4]oxadiazol-2-yl]-phenyl}-morpholine] | 146 nM
COc1cc(N2CCOCC2)ccc1-c1nnc(-c2c(-c3ccc(C(F)(F)F)cc3)noc2C)o1 [Example 103, 4-(3-Methoxy-4-{5-[5-methyl-3-(4-trifluoromethyl-phenyl)-isoxazol-4-yl]-[1,3,4]oxadiazol-2-yl}-phenyl)-morpholine] | 47.6 nM
COc1cc(N2CCOCC2)ccc1-c1nnc(-c2c(-c3ccc(C)cc3)noc2C)o1 [Example 104, 4-(3-Methoxy-4-{5-[5-methyl-3-(4-methyl-phenyl)-isoxazol-4-yl]-[1,3,4]oxadiazol-2-yl}-phenyl)-morpholine] | 12.1 nM
COc1cc(N2CCOCC2)ccc1-c1nnc(-c2c(-c3ccccc3)noc2Cl)o1 [Example 105, 4-{4-[5-(5-Chloro-3-phenyl-isoxazol-4-yl)-[1,3,4]oxadiazol-2-yl]-3-methoxy-phenyl}-morpholine] | 27.1 nM
COc1cc(N2CCOCC2)ccc1-c1nnc(-c2c(-c3ccccc3)noc2N(C)C)o1 [Example 106, {4-[5-(2-Methoxy-4-morpholin-4-yl-phenyl)-[1,3,4]oxadiazol-2-yl]-3-phenyl-isoxazol-5-yl}-dimethyl-amine] | 165 nM
COc1cc(N2CCOCC2)ccc1-c1nnc(-c2c(-c3ccccc3)noc2N2CCOCC2)o1 [Example 107, 4-{4-[5-(2-Methoxy-4-morpholin-4-yl-phenyl)-[1,3,4]oxadiazol-2-yl]-3-phenyl-isoxazol-5-yl}-morpholine] | 31.1 nM
COc1cc(N2CCOCC2)ccc1-c1nnc(-c2c(-c3cccc(F)c3)noc2C)o1 [Example 108, 4-(4-{5-[3-(3-Fluoro-phenyl)-5-methyl-isoxazol-4-yl]-[1,3,4]oxadiazol-2-yl}-3-methoxy-phenyl)-morpholine] | 11.3 nM
COc1cc(N2CCOCC2)ccc1-c1nnc(-c2c(-c3ccc(Cl)cc3)noc2C)o1 [Example 109, 4-(4-{5-[3-(4-Chloro-phenyl)-5-methyl-isoxazol-4-yl]-[1,3,4]oxadiazol-2-yl}-3-methoxy-phenyl)-morpholine] | 2.2 nM
